Test results reported in patent publication US9447116B2, “Inhibitors of HIV replication” (priority 2010, dated 2016).

Legend:
[1] = molecular target: T1, LEDGF-Integrase interaction (Human immunodeficiency virus type 1 group M subtype B, UniProt P12497); assay: HTRF Interaction assay (S9118); set-up: species or system HIV; conditions: His6-tagged integrase and MBP-LEDGF integrase binding domain
T1 construct: His6-tagged integrase (78 nM final concentration); purchased Prof; Zeger Debyser, Katholieke Universiteit Leuven (supplied by an academic laboratory, not a commercial vendor)
Text: • Adachi, A., Gendelman, H., Koenig, S., Folks, T., Wiley, R., Rabson, A. and Martin, M (1986) Production of acquired immunodeficency syndrome-associated retrovirus in human and nonhuman cells transfected with an infectious molecular clone, J. Virol., 59, 284-291. • Cao J, Isaacson J, Patick A K, Blair W S. (2005) High-throughput human immunodeficiency virus type 1 (HIV-1) full replication assay that includes HIV-1 Vif as an antiviral target Antimicrobial Agents and Chemotherapy; 49(9), p 3833-3841. Assay to Measure the LEDGF-Integrase Integration Inhibitory Activity of Compounds of the Invention HTRF Interaction Assay (S9118)
An Homogeneous Time Resolved Fluorescence (HTRF) assay is performed in a manner similar to previous reports on HTRF protein assays as reviewed by Mathis (Clin. Chem., 2005). The assay procedure is performed as follows: reactions are performed in 20 μl final volume in 384-well black low volume microtiter plates (Greiner). The final reaction buffer contains 29 mM phosphase buffer (pH 7), 10 mM HEPES buffet (pH 7.4), 68.5 mM NaCl, 1.4 mM KCl, 400 mM KF 0.05% (w/v) pluronic acid (P104, Sigma Aldrich) and 1% (v/v) DMSO. His6-tagged integrase (78 nM final concentration) is incubated with […] fused to the Δ325 carboxy terminal integrase binding domain of LEDGF in the presence of compound for 2 hours at room temperature. Both these protein regents are supplied by Prof. Zeger Debyser of Katholleke Universiteit Leuven, Leuven, Belgium. The compounds are added at varying concentrations spanning a wide range from 0.1 up to 100 μM. Afterwards 8.3 nM of europium cryptate conjugated anti-MBP monoclonal antibody and 17 nM anti-His antibody conjugated with the acceptor fluorophore d2. Following a 2 hour room temperature incubation the plates are read on an EnVision™ microplate reader (Perkin Elmer) using an excitation wavelength of 320 nm. The ratio of fluorescence emitted at […] is used to assess the degree to which the protein-protein interaction had been inhibited.

[2] = system: HIV-1 virus (NL4.3 strain); assay: MT-2 based antiviral assay (S8737E); format: cell-based; conditions: Human immunodeficiency virus 1, 72 h, read-out: Antiviral Activity (S8737E, μM), HIV-1 NL4.3 replication in MT2 cells, 3 days, β-Gal readout in JC53BL cells
Text: MT-2 Based Antiviral Assay (S8737E)
This assay is designed to determine the effects of small molecules on the replication of HIV-1 in the lymphobastoid cell line, MT2, and is able to detect the antiviral effect of compounds acting at any stage of the HIV-1 replication cycle. The assay, along with its associated cytotoxicity assay, was described in detail in 2005 in a paper by Cao et al (Antimicrobial Agents and Chemotherapy 2005; 49(9), p 3833-3841).
MT2 cells are infected with the HIV-1 virus (NL4.3 strain; Adachi et al., Journal of Virology 1986) and transferred to assay plates containing serial dilutions of compounds to be tested. The assay plates are incubated for 3 days (MT2) to allow for several rounds of viral replication/infection to take place. At the end of this time, supernatant is transferred into new plates containing JC53BL cells.
JC53BL cells express CXCR4, CCR5 and CD4 receptors, and HIV-1-LTR-β-Gal. Under normal culture conditions undetectable levels of β-Galactosidase are expressed, but in the presence of HIV-1, the viral Tat protein is able to activate the HIV-1-LTR in the JC53BL cells resulting in the increased expression of the β-Gal enzyme. The expression can be measured using the ‘FluorAce β-Galactosidase reporter’ assay. The levels of β-Gal are directly proportional to the levels of Tat (up to a threshold) allowing virus quantification. Compounds that inhibit virus replication will give rise to a reduced signal and a dose-response curve for each compound can be generated. This is then used to determine the IC50 for each compound, a measure of the compound's potency.

Structure (SMILES)	IC50 [1]	IC50 [2]
Cc1nc2sc3c(c2c(-c2ccc(Cl)cc2F)c1[C@H](OC(C)(C)C)C(=O)O)CCCC3 [Example 45, (2S)-tert-butoxy[4-(4-chloro-2-fluorophenyl)-2-methyl-5,6,7,8-tetrahydro[1]benzothieno[2,3-b]pyridin-3-yl]acetic acid]	565 nM	0.023 µM
Cc1ccc(-c2c([C@H](OC(C)(C)C)C(=O)O)c(C)nc3sc4c(c23)CCCC4)c(F)c1 [Example 47, (2S)-tert-butoxy[4-(2-fluoro-4-methylphenyl)-2-methyl-5,6,7,8-tetrahydro[1]benzothieno[2,3-b]pyridin-3-yl]acetic acid]	657 nM	0.071 µM
Cc1nc2sc3c(c2c(-c2ccc(C(F)F)cc2)c1[C@H](OC(C)(C)C)C(=O)O)CCCC3 [Example 49]	11000 nM	0.081 µM
Cc1nc2sc3c(c2c(-c2ccc(C(F)(F)F)cc2)c1[C@H](OC(C)(C)C)C(=O)O)CCCC3 [Example 50, (S)-2-(tert-butoxy)-2-(2-methyl-4-(4-(trifluoromethyl)phenyl)-5,6,7,8-tetrahydrobenzo[4.5]thieno[2,3-b]pyridin-3-yl)acetic acid]	1500 nM	0.055 µM
Cc1nc2sc3c(c2c(-c2ccc(Br)cc2)c1[C@H](OC(C)(C)C)C(=O)O)CCCC3 [Example 51, (S)-2-(4-(4-bromophenyl)-2-methyl-5,6,7,8-tetrahydrobenzo[4,5]thieno[2,3-b]pyridin-3-yl)-2-(tert-butoxy)acetic acid]	1160 nM	0.08 µM
Cc1ccc(-c2c(C(OC(C)(C)C)C(=O)O)c(C)nc3sc4c(c23)CCOC4)cc1 (stereo not drawn) [Example 52, Tert-Butoxy-(2-methy-4-p-tolyl-5,8-dihydro-6H-7-oxa-9-thia-1-aza-fluoren-3-yl)-acetic acid]	2750 nM	0.189 µM
